# Data from ChEMBL document CHEMBL5113376, “Antimalarial application of quinones: A recent update” (Eur J Med Chem, 2021).
# Assays:
# Plasmodium falciparum [1] = assay: Antimalarial activity against Plasmodium falciparum K14 incubated for 42 hrs in presence of 3H-hypoxanthine by top-count microbeta counter analysis; type: functional, organism-based
# Plasmodium falciparum [2] = assay: Antiplasmodial activity against chloroquine sensitive Plasmodium falciparum F-32 Tanzania incubated for 48 hrs; type: functional, organism-based
# Plasmodium falciparum [3] = assay: Antimalarial activity against Plasmodium falciparum W2 incubated for 24 hrs; type: functional, organism-based; conditions: Plasmodium falciparum, W2, 24 h
# Plasmodium falciparum [4] = assay: Antimalarial activity against Plasmodium falciparum 3D7 infected in human erythrocytes; type: functional, organism-based; conditions: 3D7, Erythrocyte
# Plasmodium falciparum [5] = assay: Antimalarial activity against Plasmodium falciparum Dd2 treated for 48 hrs followed by hypoxanthine addition; type: functional, organism-based; conditions: Dd2, 48 h
# Plasmodium berghei [6] = assay: In vivo antiplasmodial activity against Chloroquine susceptible Plasmodium berghei ANKA infected in CD-1 mouse assessed as decrease in parasitaemia at 30 to 50 mg/kg/day, ip relative to control; type: functional; design: scale not given: the % may be the effect or the level left; conditions: dose 30-50 mg/kg/day
# Plasmodium falciparum [7] = assay: Antimalarial activity against chloroquine sensitive Plasmodium falciparum D10 incubated for 72 hrs by spectrophotometric analysis; type: functional, organism-based; conditions: D10, 72 h
# Plasmodium falciparum [8] = assay: Antimalarial activity against chloroquine resistant Plasmodium falciparum W2 incubated for 72 hrs by spectrophotometric analysis; type: functional, organism-based; conditions: W2, 72 h
# [9] = Cytotoxicity against HMEC-1 cells treated for 72 hrs by MTT assay; type: toxicity, cell-based; conditions: human
# Plasmodium falciparum [10] = assay: Antimalarial activity against Plasmodium falciparum D6; type: functional, organism-based
# Plasmodium falciparum [11] = assay: Antimalarial activity against Plasmodium falciparum W2; type: functional, organism-based
# Plasmodium falciparum [12] = assay: Antimalarial activity against Plasmodium falciparum TM91C235; type: functional, organism-based
# Plasmodium berghei [13] = assay: Antimalarial activity against Plasmodium berghei; type: functional, organism-based
# Plasmodium falciparum [14] = assay: Antimalarial activity against Plasmodium falciparum Dd2 by 96-well microtitre plate method based scintillation counting analysis; type: functional, organism-based
# Plasmodium berghei [15] = assay: In vivo antiplasmodial activity against Plasmodium berghei ANKA infected in CD-1 mouse assessed as decrease in parasitaemia at 50 mg/kg, ip measured after 4 days relative to control; type: functional; design: scale not given: the % may be the effect or the level left; conditions: time 4 day
# Plasmodium falciparum [16] = assay: Antiplasmodial activity against Chloroquine resistant Plasmodium falciparum FcB1 incubated for 48 hrs; type: functional, organism-based; conditions: FcB1, 48 h
# Plasmodium falciparum [17] = assay: Antimalarial activity against Plasmodium falciparum; type: functional, organism-based
# Plasmodium falciparum [18] = assay: Antimalarial activity against Plasmodium falciparum D10; type: functional, organism-based
# [19] = Cytotoxicity against HMEC-1 cells; type: toxicity, cell-based; conditions: human
# Plasmodium falciparum [20] = assay: Antiplasmodial activity against Plasmodium falciparum Dd2 incubated for 48 hrs; type: functional, organism-based; conditions: Dd2, 48 h
# Plasmodium falciparum [21] = assay: Antiplasmodial activity against Plasmodium falciparum 3D7 incubated for 48 hrs; type: functional, organism-based; conditions: 3D7, 48 h
# Plasmodium falciparum [22] = assay: Antimalarial activity against Plasmodium falciparum K1 by 96-well microtitre plate method based scintillation counting analysis; type: functional, organism-based
# Plasmodium falciparum [23] = assay: Antiplasmodial activity against Plasmodium falciparum K1; type: functional, organism-based
# HepG2 = assay: Cytotoxicity against human HepG2 cells incubated for 24 hrs by MTT assay; type: functional
# A549 = assay: Cytotoxicity against human A549 cells incubated for 24 hrs by MTT assay; type: functional
# [24] = Cytotoxicity against […] LLC-PK1 cells incubated for 24 hrs by MTT assay; type: toxicity, cell-based, Sus scrofa; conditions: pig
# [25] = Cytotoxicity against human MRC5 cells incubated for 24 hrs by MTT assay; type: toxicity, cell-based
# HEK293 = assay: Cytotoxicity against HEK293 cells incubated for 48 hrs by MTT assay; type: functional; conditions: Homo sapiens
# [26] = Cytotoxicity against African green monkey Vero cells; type: toxicity, cell-based; conditions: chlorocebus sabaeus
# Plasmodium berghei [27] = assay: In vivo antiplasmodial activity against Plasmodium berghei ANKA infected in CD-1 mouse assessed as decrease in parasitaemia at 50 mg/kg, ip measured after 7 days relative to control; type: functional; design: scale not given: the % may be the effect or the level left; conditions: time 7 day
smiles,measurement,setting,value
CN(C)c1ccc(N2C(=O)C(Oc3ccccc3)C2c2ccc3c(c2)C(=O)c2ccccc2C3=O)cc1 (stereo unspecified),IC50,Plasmodium falciparum [1],9000 nM
CN(C)c1ccc(N2C(=O)C(Oc3ccc(Cl)cc3)C2c2ccc3c(c2)C(=O)c2ccccc2C3=O)cc1 (stereo unspecified),IC50,Plasmodium falciparum [1],21000 nM
COc1ccc(-n2cc(COC3=CC(=O)c4ccccc4C3=O)nn2)cc1F,IC50,Plasmodium falciparum [2],800 nM
CC1(C)OC2=C(CC1I)C(=O)c1ccccc1C2=O (stereo unspecified),IC50,Plasmodium falciparum [3],19500 nM
O=C1C(O)=C(Cc2ccc([N+](=O)[O-])cc2)C(=O)c2ccccc21,IC50,Plasmodium falciparum [4],13700 nM
CC1=C(Cc2ccc([N+](=O)[O-])cc2)C(=O)c2ccccc2C1=O,IC50,Plasmodium falciparum [5],46 nM
same,Activity,Plasmodium berghei [6],20.7%
O=C(Cn1cc(COC2=CC(=O)c3ccccc3C2=O)nn1)c1ccc(-c2ccccc2)cc1,IC50,Plasmodium falciparum [2],1600 nM
COC1=C(Cc2ccccc2)C(=O)C2=C(NCCS2(=O)=O)C1=O,IC50,Plasmodium falciparum [7],600 nM
same,IC50,Plasmodium falciparum [8],700 nM
same,IC50 at 72 h,[9],17600 nM
COc1ccc(N2C(=O)C(Oc3ccc(Cl)cc3Cl)C2c2ccc3c(c2)C(=O)c2ccccc2C3=O)cc1 (stereo unspecified),IC50,Plasmodium falciparum [1],47000 nM
CCCCCC[C@H](C)CC1=C(O)C(=O)c2ccccc2C1=O,IC50,Plasmodium falciparum [10],63 nM
same,IC50,Plasmodium falciparum [11],214 nM
same,IC50,Plasmodium falciparum [12],348 nM
same,IC50,Plasmodium berghei [13],96.2 nM
Cc1ccc2c(c1)C(=O)c1c(O)ccc(O)c1C2=O,IC50,Plasmodium falciparum [14],1.63 µg/mL
CC1=C(Cc2ccc(Br)cc2)C(=O)c2ccccc2C1=O,IC50,Plasmodium falciparum [5],46 nM
same,Activity,Plasmodium berghei [15],35.8%
O=C1C2=C(C(=O)c3ccccc31)[C@H]1OCc3cc4c(cc3[C@H]1CO2)OCO4,IC50,Plasmodium falciparum [16],280 nM
COc1ccc(N2C(=O)C(Oc3ccc(Cl)cc3)C2c2ccc3c(c2)C(=O)c2ccccc2C3=O)cc1 (stereo unspecified),IC50,Plasmodium falciparum [1],38000 nM
O=C1c2ccccc2C(=O)c2cc(C3C(Oc4ccc5ccccc5c4)C(=O)N3c3cccc4ccccc34)ccc21 (stereo unspecified),IC50,Plasmodium falciparum [1],39000 nM
CNCCCCNCCCNC(=O)c1c(C)oc2c1C(=O)c1ccccc1C2=O,IC50,Plasmodium falciparum [17],50 nM
COC1=C(Cc2ccc(OC(F)(F)F)cc2)C(=O)C2=C(NCCS2(=O)=O)C1=O,IC50,Plasmodium falciparum [11],1120 nM
same,IC50,Plasmodium falciparum [18],810 nM
same,IC50,[19],3590 nM
C[C@@H](CCCCCC(F)(F)F)CC1=C(O)C(=O)c2ccccc2C1=O,IC50,Plasmodium falciparum [10],5 nM
same,IC50,Plasmodium falciparum [11],65 nM
same,IC50,Plasmodium falciparum [12],84 nM
same,IC50,Plasmodium berghei [13],17 nM
CC1=C(Cc2ccc(F)cc2)C(=O)c2ccccc2C1=O,IC50,Plasmodium falciparum [5],46 nM
same,Activity,Plasmodium berghei [6],20.7%
CC1=C(Cc2ccc(C(F)(F)F)cc2)C(=O)c2ccccc2C1=O,Activity,Plasmodium berghei [6],20.7%
CCC1=C(OC)C(=O)C2=C(C1=O)S(=O)(=O)CCN2,IC50,Plasmodium falciparum [7],2450 nM
same,IC50,Plasmodium falciparum [8],2370 nM
same,IC50 at 72 h,[9],> 100000 nM
C/C=C/C1=C(O)C(=O)c2ccccc2C1=O,IC50,Plasmodium falciparum [20],1600 nM
same,IC50,Plasmodium falciparum [21],1200 nM
COc1cc2c(cc1O)[C@H]1COC3=C(C(=O)c4ccccc4C3=O)[C@H]1O2,IC50,Plasmodium falciparum [16],≥ 10000 nM
Cc1cc2c(o1)C(=O)c1ccccc1C2=O,IC50,Plasmodium falciparum [20],1200 nM
same,IC50,Plasmodium falciparum [21],1500 nM
CCc1cc2c(o1)C(=O)c1ccccc1C2=O,IC50,Plasmodium falciparum [20],1800 nM
same,IC50,Plasmodium falciparum [21],400 nM
COc1cc(O)c(-c2c(C)cc(O)c3c2C(=O)c2ccc([C@H]4c5cccc(O)c5C(=O)c5c(O)cc(C)c(-c6c(O)cc(OC)c(C(C)=O)c6O)c54)c(O)c2C3=O)c(O)c1C(C)=O (stereo in doubt; 11),IC50,"Plasmodium falciparum [22]; Plasmodium falciparum, K1",140 nM
COc1cc(O)c(-c2c(C)cc(O)c3c2C(=O)c2ccc([C@H]4c5cccc(O)c5C(=O)c5c(O)cc(C)c(-c6c(O)cc(OC)c(C(C)=O)c6O)c54)c(O)c2C3=O)c(O)c1C(C)=O (stereo in doubt; 12),IC50,Plasmodium falciparum [22],230 nM
O=C(O)c1ccc2c(n1)C(=O)C1=C(C2=O)S(=O)(=O)CCN1 [ACIDIATHIAZONE A],IC50,Plasmodium falciparum [23],3300 nM
CC1(C)CCC2=C(O1)C(=O)c1ccccc1C2=O [ALPHA-LAPACHONE],CC50,HepG2,2090 nM
same,CC50,A549,2090 nM
same,CC50 at 24 h,[24],2090 nM
same,CC50 at 24 h,[25],2090 nM
same,IC50,Plasmodium falciparum [3],15800 nM
O=C1C(O)=C([C@H]2CC[C@H](c3ccc(Cl)cc3)CC2)C(=O)c2ccccc21 [ATOVAQUONE],IC50,Plasmodium falciparum [10],0.34 nM
same,IC50,Plasmodium falciparum [11],1 nM
same,IC50,Plasmodium berghei [13],19.7 nM
same,CC50,HEK293,49 nM
CCN(CC)CCCC(C)Nc1ccnc2cc(Cl)ccc12 (stereo unspecified) [CHLOROQUINE],CC50,[26],227000 nM
same,Activity,Plasmodium berghei [15],86.3%
same,Activity,Plasmodium berghei [27],76.8%
CC(C)=CCC1=C(O)C(=O)c2ccccc2C1=O [LAPACHOL],CC50,HepG2,≥ 285000 nM
same,CC50,A549,≥ 285000 nM
same,CC50 at 24 h,[24],≥ 285000 nM
same,CC50 at 24 h,[25],≥ 285000 nM
same,IC50,Plasmodium falciparum [3],80000 nM
CC1(C)CCC2=C(O1)c1ccccc1C(=O)C2=O [LAPACHONE],CC50,HepG2,2090 nM
same,CC50,A549,2090 nM
same,IC50,Plasmodium falciparum [3],20500 nM
